ChEMBL document CHEMBL1156232, “Non-classical antifolates. Part 2: synthesis, biological evaluation, and molecular modeling study of some new 2,6-substituted-quinazolin-4-ones” (Bioorg Med Chem, 2010)
Values after ≈ are worked out from the molar mass of the structure shown. Active and inactive are the calls of the source. No cut-off for these calls is given here.

Columns and labels:
[1] = test system: Staphylococcus aureus; test: Antibacterial activity against Staphylococcus aureus at 200 ug/disk after 24 hrs by disk diffusion method; format: functional; settings: for zone of inhibition at 200 µg/disc: read-out: DIZ
[2] = test system: Bacillus subtilis; test: Antibacterial activity against Bacillus subtilis at 200 ug/disk after 24 hrs by disk diffusion method; format: functional; settings: for zone of inhibition at 200 µg/disc: read-out: DIZ
[3] = test system: Bacillus subtilis; test: Antibacterial activity against Bacillus subtilis after 24 hrs by microdilution susceptibility method; format: functional
[4] = test system: Micrococcus luteus; test: Antibacterial activity against Micrococcus luteus at 200 ug/disk after 24 hrs by disk diffusion method; format: functional; settings: for zone of inhibition at 200 µg/disc: Micrococcus luteus, 24 h, read-out: DIZ
[5] = test system: Escherichia coli; test: Antibacterial activity against Escherichia coli at 200 ug/disk after 24 hrs by disk diffusion method; format: functional; settings: for zone of inhibition at 200 µg/disc: read-out: DIZ
[6] = test system: Escherichia coli; test: Antibacterial activity against Escherichia coli after 24 hrs by microdilution susceptibility method; format: functional
[7] = test system: Pseudomonas aeruginosa; test: Antibacterial activity against Pseudomonas aeruginosa at 200 ug/disk after 24 hrs by disk diffusion method; format: functional; settings: for zone of inhibition at 200 µg/disc: read-out: DIZ
[8] = test system: Candida albicans; test: Antifungal activity against Candida albicans at 200 ug/disk after 48 hrs by disk diffusion method; format: functional, organism-based
[9] = test system: Candida albicans; test: Antifungal activity against Candida albicans after 48 hrs by microdilution susceptibility method; format: functional, organism-based
[10] = biological target: T1, Dihydrofolate reductase (Bos taurus, UniProt P00376)
T1 sequence (P00376 whole entry): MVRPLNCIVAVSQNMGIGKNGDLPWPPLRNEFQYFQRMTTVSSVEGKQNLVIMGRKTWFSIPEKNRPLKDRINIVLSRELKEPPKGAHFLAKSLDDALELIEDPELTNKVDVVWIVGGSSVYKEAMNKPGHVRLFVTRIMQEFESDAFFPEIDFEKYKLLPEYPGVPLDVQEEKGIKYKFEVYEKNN
Description: Inhibition of bovine DHFR after 2 mins

[11] = biological target: T2, Dihydrofolate reductase (Homo sapiens, UniProt P00374)
T2 sequence (P00374 whole entry): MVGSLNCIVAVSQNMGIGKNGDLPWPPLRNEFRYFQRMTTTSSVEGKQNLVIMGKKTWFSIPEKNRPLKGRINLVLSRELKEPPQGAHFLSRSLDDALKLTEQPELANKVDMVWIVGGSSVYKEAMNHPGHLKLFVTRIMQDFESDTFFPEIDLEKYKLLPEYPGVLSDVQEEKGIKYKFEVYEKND
Description: Inhibition of human DHFR after 2 mins

[12] = test system: Staphylococcus aureus; test: Antibacterial activity against Staphylococcus aureus after 24 hrs by microdilution susceptibility method; format: functional
[13] = Antitumor activity against human leukemia cells after 48 hrs by SRB assay; format: functional; settings: Leukemia cell
[14] = Antitumor activity against human non small cell lung cancer cells after 48 hrs by SRB assay; format: functional; settings: Cancer cell lines
[15] = Antitumor activity against human colon cancer cells after 48 hrs by SRB assay; format: functional; settings: Cancer cell lines
[16] = Antitumor activity against human CNS cancer cells after 48 hrs by SRB assay; format: functional; settings: Cancer cell lines
[17] = Antitumor activity against human melanoma cells after 48 hrs by SRB assay; format: functional; settings: Melanoma cell
[18] = Antitumor activity against human ovarian cancer cells after 48 hrs by SRB assay; format: functional; settings: Cancer cell lines
[19] = Antitumor activity against human renal cancer cells after 48 hrs by SRB assay; format: functional; settings: Cancer cell lines
[20] = Antitumor activity against human prostate cancer cells after 48 hrs by SRB assay; format: functional; settings: Cancer cell lines
[21] = Antitumor activity against human breast cancer cells after 48 hrs by SRB assay; format: functional; settings: Cancer cell lines
[22] = test system: Micrococcus luteus; test: Antibacterial activity against Micrococcus luteus after 24 hrs by microdilution susceptibility method; format: functional

CSc1nc2ccc(N(C/C=C/c3ccccc3)C/C=C/c3ccccc3)cc2c(=O)n1Cc1ccccc1
diameter of the inhibition zone (DIZ) [1]: inactive | zone of inhibition at 200 µg/disc [2]: 18 mm | MIC [3]: 8 µg/mL (≈ 15.1 µM) | diameter of the inhibition zone (DIZ) [4]: inactive | zone of inhibition at 200 µg/disc [5]: 16 mm | MIC [6]: 16 µg/mL (≈ 30.2 µM) | diameter of the inhibition zone (DIZ) [7]: inactive | Activity [8]: inactive | Activity [9]: inactive | IC50 [10]: 0.6 µM | IC50 [11]: 0.8 µM

CCSc1nc2ccc([N+](=O)[O-])cc2c(=O)n1Cc1ccccc1
diameter of the inhibition zone (DIZ) [1]: inactive | diameter of the inhibition zone (DIZ) [2]: inactive | diameter of the inhibition zone (DIZ) [4]: inactive | zone of inhibition at 200 µg/disc [5]: 20 mm | MIC [6]: 8 µg/mL (≈ 23.4 µM) | zone of inhibition at 200 µg/disc [7]: 15 mm | Activity [8]: inactive | Activity [9]: inactive | IC50 [10]: 10 µM

Cc1ccc2nc(S)n(Cc3ccccc3)c(=O)c2c1
diameter of the inhibition zone (DIZ) [1]: inactive | zone of inhibition at 200 µg/disc [2]: 18 mm | MIC [3]: 4 µg/mL (≈ 14.2 µM) | zone of inhibition at 200 µg/disc [4]: 14 mm | zone of inhibition at 200 µg/disc [5]: 17 mm | MIC [6]: 4 µg/mL (≈ 14.2 µM) | zone of inhibition at 200 µg/disc [7]: 15 mm | Activity [8]: inactive | Activity [9]: inactive | IC50 [10]: 30 µM

C=CCSc1nc2ccc(N(C/C=C/c3ccccc3)C/C=C/c3ccccc3)cc2c(=O)n1Cc1ccccc1
zone of inhibition at 200 µg/disc [1]: 22 mm | MIC [12]: 4 µg/mL (≈ 7.2 µM) | zone of inhibition at 200 µg/disc [2]: 20 mm | MIC [3]: 4 µg/mL (≈ 7.2 µM) | diameter of the inhibition zone (DIZ) [4]: inactive | zone of inhibition at 200 µg/disc [5]: 16 mm | MIC [6]: 16 µg/mL (≈ 28.8 µM) | diameter of the inhibition zone (DIZ) [7]: inactive | Activity [8]: inactive | Activity [9]: inactive | IC50 [10]: 0.5 µM | IC50 [11]: 0.7 µM

O=c1[nH]cc(F)c(=O)[nH]1 [FLUOROURACIL]
GI50 [13]: 15.1 µM | TGI [13]: > 100 µM | GI50 [14]: > 100 µM | TGI [14]: > 100 µM | GI50 [15]: 8.4 µM | TGI [15]: > 100 µM | GI50 [16]: 72.1 µM | TGI [16]: > 100 µM | GI50 [17]: 70.6 µM | TGI [17]: > 100 µM | GI50 [18]: 61.4 µM | TGI [18]: > 100 µM | GI50 [19]: 45.6 µM | TGI [19]: > 100 µM | GI50 [20]: 22.7 µM | TGI [20]: > 100 µM | GI50 [21]: 76.4 µM | TGI [21]: > 100 µM

C=CCN(CC=C)c1ccc2nc(SC)n(Cc3ccccc3)c(=O)c2c1
diameter of the inhibition zone (DIZ) [1]: inactive | diameter of the inhibition zone (DIZ) [2]: inactive | diameter of the inhibition zone (DIZ) [4]: inactive | diameter of the inhibition zone (DIZ) [5]: inactive | diameter of the inhibition zone (DIZ) [7]: inactive | Activity [8]: inactive | Activity [9]: inactive | IC50 [10]: 3 µM | IC50 [11]: 1 µM

C=CCSc1nc2ccc(N)cc2c(=O)n1Cc1ccccc1
diameter of the inhibition zone (DIZ) [1]: inactive | diameter of the inhibition zone (DIZ) [2]: inactive | diameter of the inhibition zone (DIZ) [4]: inactive | diameter of the inhibition zone (DIZ) [5]: inactive | diameter of the inhibition zone (DIZ) [7]: inactive | Activity [8]: inactive | Activity [9]: inactive | IC50 [10]: 8 µM | IC50 [11]: 5 µM

Nc1ccc2nc(SC/C=C/c3ccccc3)n(Cc3ccccc3)c(=O)c2c1
diameter of the inhibition zone (DIZ) [1]: inactive | diameter of the inhibition zone (DIZ) [2]: inactive | diameter of the inhibition zone (DIZ) [4]: inactive | diameter of the inhibition zone (DIZ) [5]: inactive | diameter of the inhibition zone (DIZ) [7]: inactive | Activity [8]: inactive | Activity [9]: inactive | IC50 [10]: 8 µM | IC50 [11]: 6 µM

Nc1ccc2ncn(Cc3ccccc3)c(=O)c2c1
zone of inhibition at 200 µg/disc [1]: 24 mm | MIC [12]: 2 µg/mL (≈ 7.96 µM) | zone of inhibition at 200 µg/disc [2]: 28 mm | MIC [3]: 2 µg/mL (≈ 7.96 µM) | zone of inhibition at 200 µg/disc [4]: 20 mm | MIC [22]: 4 µg/mL (≈ 15.9 µM) | zone of inhibition at 200 µg/disc [5]: 22 mm | MIC [6]: 4 µg/mL (≈ 15.9 µM) | diameter of the inhibition zone (DIZ) [7]: inactive | Activity [8]: inactive | Activity [9]: inactive | IC50 [10]: 40 µM

C=CC(=O)Nc1ccc2nc(SC/C=C/c3ccccc3)n(Cc3ccccc3)c(=O)c2c1
zone of inhibition at 200 µg/disc [1]: 15 mm | diameter of the inhibition zone (DIZ) [2]: inactive | diameter of the inhibition zone (DIZ) [4]: inactive | diameter of the inhibition zone (DIZ) [5]: inactive | diameter of the inhibition zone (DIZ) [7]: inactive | Activity [8]: inactive | Activity [9]: inactive | IC50 [10]: 1 µM | IC50 [11]: 2 µM

C=CCSc1nc2ccc(N(CC=C)CC=C)cc2c(=O)n1Cc1ccccc1
diameter of the inhibition zone (DIZ) [1]: inactive | diameter of the inhibition zone (DIZ) [2]: inactive | diameter of the inhibition zone (DIZ) [4]: inactive | diameter of the inhibition zone (DIZ) [5]: inactive | diameter of the inhibition zone (DIZ) [7]: inactive | Activity [8]: inactive | Activity [9]: inactive | IC50 [10]: 0.4 µM | IC50 [11]: 0.9 µM

O=c1c2cc([N+](=O)[O-])ccc2nc(S)n1Cc1ccccc1
zone of inhibition at 200 µg/disc [1]: 20 mm | MIC [12]: 4 µg/mL (≈ 12.8 µM) | zone of inhibition at 200 µg/disc [2]: 18 mm | MIC [3]: 8 µg/mL (≈ 25.5 µM) | zone of inhibition at 200 µg/disc [4]: 16 mm | MIC [22]: 16 µg/mL (≈ 51.1 µM) | diameter of the inhibition zone (DIZ) [5]: inactive | diameter of the inhibition zone (DIZ) [7]: inactive | Activity [8]: inactive | Activity [9]: inactive | IC50 [10]: 15 µM

C=CCNc1ccc2nc(SC)n(Cc3ccccc3)c(=O)c2c1
diameter of the inhibition zone (DIZ) [1]: inactive | diameter of the inhibition zone (DIZ) [2]: inactive | diameter of the inhibition zone (DIZ) [4]: inactive | zone of inhibition at 200 µg/disc [5]: 17 mm | diameter of the inhibition zone (DIZ) [7]: inactive | Activity [8]: inactive | Activity [9]: inactive | IC50 [10]: 0.6 µM | IC50 [11]: 0.8 µM

C=CCNc1ccc2nc(SCC=C)n(Cc3ccccc3)c(=O)c2c1
diameter of the inhibition zone (DIZ) [1]: inactive | diameter of the inhibition zone (DIZ) [2]: inactive | diameter of the inhibition zone (DIZ) [4]: inactive | diameter of the inhibition zone (DIZ) [5]: inactive | diameter of the inhibition zone (DIZ) [7]: inactive | Activity [8]: inactive | Activity [9]: inactive | IC50 [10]: 0.8 µM | IC50 [11]: 1 µM

C=CCSc1nc2ccc([N+](=O)[O-])cc2c(=O)n1Cc1ccccc1
diameter of the inhibition zone (DIZ) [1]: inactive | diameter of the inhibition zone (DIZ) [2]: inactive | diameter of the inhibition zone (DIZ) [4]: inactive | diameter of the inhibition zone (DIZ) [5]: inactive | diameter of the inhibition zone (DIZ) [7]: inactive | Activity [8]: inactive | Activity [9]: inactive | IC50 [10]: 3 µM | IC50 [11]: 2 µM
